In patent US12606569B2, “Alkaloid-containing compositions and uses thereof” (priority 2017, dated 2026):
Where two headings read alike, the source gives them in different places.

Key:
[1] = format: physicochemical; conditions: for chemical stability of the component in buffers / degradation of the component at pH 2 and 10: 1% w/w purified loline extract, 0.2M buffers; for chemical stability of the component in buffers: except pH 2 and 10; for degradation of the component at pH 2 and 10: starting at 24 h
Protocol: 1% w/w solutions of purified loline extract at various pH and 0.2M buffers were used in this investigation. The solutions were maintained at 54° C. (±1° C.) and 70° C. (±1° C.) and pH remained at the target pH (±0.2 pH units). Samples were taken periodically over a 2-3 week period and analysed by GC-FID to determine NFL strength.

[2] = format: physicochemical

CC(=O)N(C)C1C2CN3CCC(O2)C13 (stereo not shown) [NAL, N-acetylloline]
chemical stability of the component in buffers [1]: chemically stable
degradation of the component at pH 2 and 10 [1]: small degradation

CC(=O)NC1C2CN3CCC(O2)C13 (stereo not shown) [NANL, N-acetylnorloline]
chemical stability of the component in buffers [1]: chemically stable
degradation of the component at pH 2 and 10 [1]: small degradation

CN(C=O)C1C2CN3CCC(O2)[C@H]13 (stereo partly shown) [NFL, N-formylloline]
overall degradation rates ([2]; 50° C. compared with 70° C.): reduced
conversion of NFL to loline, citric acid based system versus acetic acid derived buffer ([2]; both 50° C. and 70° C.): higher degradation
stability on increasing or decreasing pH from pH 4 ([1]; 70° C.): significant decrease in stability
time after which the stability of NFL plateaus ([1]; 70° C., pH 2.6): approximately 100 hours
stability (degradation of NFL to loline) ([1]; 70° C., pH 4, acetic acid derived buffer, over 170 hours): greatest stability
stability (degradation of NFL to loline) ([1]; 70° C., pH 4, citric acid buffer): lower stability
